The numbers were not newly measured in patent US20240047033A1, “MULTI-OMICS METHODS FOR PRECISION MEDICINE” (UNIVERSITY OF PITTSBURGH-OF THE COMMONWEALTH SYSTEM OF …, priority 2020, published 2024), which cites them from elsewhere.

The data set concerns non-small cell lung cancer (NSCLC) tumors. The conditions noted are these: pretreated chemorefractory NSCLC patients, Erlotinib monotherapy, 28 patients.

Regarding `C#Cc1cccc(Nc2ncnc3cc(OCCOC)c(OCCOC)cc23)c1` [Erlotinib], the “time within which all treated patients progressed” value is “six”.
